# Measurements as given in patent publication US20220024872A1, “ISOLATION AND CHARACTERIZATION OF ANTICANCER COMPOUND FROM SESUVIUM PORTULACASTRUM (L.) L” (priority 2019, published 2022).
# Where “and” joins values, the source holds several entries; their conditions need not be identical. Identical values can stand only once.
# Key:
# [1] = test system: human peripheral blood lymphocytes; assay: Trypan blue exclusion assay, lymphocyte viability; format: cell-based
# Method: In order to know the side effects associated with the treatment of anticancer compound, the effect of the anticancer compound on the viability of human peripheral blood lymphocytes was determined using trypan blue exclusion assay. Along with the viability of lymphocytes, the viability of different cancer cells at that particular concentration and incubation time are shown in Table 6.
# IMR-32 cells [2] = assay: Cell cycle progression, IMR-32; format: cell-based, human
# MDA-MB-231 = assay: Cell cycle progression, MDA-MB-231; format: cell-based, human
# [3] = test system: human neuroblastoma cells (IMR-32); assay: MTT cell proliferation assay, IMR-32; format: cell-based
# Method: (§1) Anticancer activity of crude extracts were evaluated against four cell lines, human triple negative breast cancer cells (MDA-MB-231), estrogen positive breast cancer cells (MCF-7), human neuroblastoma cells (IMR-32) and human colon cancer cells (HCT-116) that were procured from NCCS-Pune using 3-(4,5-Dimethylthiazol-2-Yl)-2,5-Diphenyltetrazolium Bromide (MTT) assay.
# (§2) In vitro cytotoxic activity of all the extracts was determined by MTT assay as described by Manikandan et al. (2017) with slight modification. After trypsinization, viable cells were counted by trypan blue exclusion in a hemocytometer and diluted with the medium.
# (§3) The cells were seeded in 96 well plate at a density of 1-2×10^4 cells per well. The plate was incubated at 37° C. in a 5% CO2 atmosphere. The following day media was removed and the cells were treated with standard, doxorubicin (0.1-4 μg/ml) or plant extract at different concentrations (100-500 μg/ml). The extract was initially dissolved in 1:1 ratio of ethanol-ethyl acetate mixture and further diluted in medium to get the required concentrations. As plant extracts were dissolved in ethyl acetate and as ethyl acetate is not miscible with cell culture media, a mixture of ethanol-ethyl acetate in a ratio of 1:1 is used for all the cell culture experiments. The final mixture used for treating the cells contained not more than 0.5% of the ethanol-ethyl acetate mixture. Negative controls were treated with the same percentage of ethanol-ethyl acetate mixture.
# (§4) The treated plate was incubated at 37° C. in a humidified incubator with 5% CO2 for 24 h. After the incubation period, the media was removed, 100 μl of 0.1 mg/ml MTT reagent was added and incubated at 37° C. in a humidified incubator with 5% CO2 for 1 h till purple MTT formazan crystals were visible under the microscope. The formazan crystals were dissolved by adding 100 μl DMSO and spectrophotometric readings were taken at 540 nm.
# (§5) The cytotoxic activity of standard or plant extract was calculated as the percentage of cell growth inhibition by using the following formula.
# (§6) Where Acontrol indicates the absorbance of control containing 0.5% ethanol-ethyl acetate mixture. Asample is the absorbance of treated cells at different concentrations. IC50 values (the concentration of sample required for inhibition of 50% of cell growth) were obtained from the regression line.
# (§7) The anticancer potential of the anticancer compound against MDA-MB-231, MCF-7, IMR-32 and HCT-116 cells was evaluated at different concentrations (40, 80, 120, 160 and 200 μg/ml) and different incubation times (24 h, 48 h, 72 h) using MTT assay by the method described above.
# [4] = test system: human triple negative breast cancer cells (MDA-MB-231); assay: MTT cell proliferation assay, MDA-MB-231; format: cell-based
# Method: as §1, §2, §3, §4, §5, §6
# Further, the most polar band from all the fractions was combined and termed as fraction 29. All the compounds separated along with crude diethyl ether extract were analyzed for their anticancer potential against MDA-MB-231 cells at a concentration of 300 μg/ml using MTT assay as described above. Cytotoxic activity was expressed as percentage inhibition of cells at 300 μg/ml.
# as §7
# IMR-32 cells [5] = assay: Gene expression by PCR relative to β-actin, IMR-32; format: cell-based, human; conditions: IMR-32, 87 μg/ml, 72 h
# Method: (§8) FIG. 7. Detection of genes by PCR. Lane 1: MDA-MB-231 control cells; lane 2: MDA-MB-231 cells treated with anticancer compound (96 μg/ml) for 72 h; lane 3: IMR-32 control cells; lane 4: IMR-32 cells treated with anticancer compound (87 μg/ml) for 72 h; control cells are treated with 0.2% of ethanol-ethyl acetate mixture at 1:1 ratio.
# (§9) Genetic level changes associated with the treatment of anticancer compound in MDA-MB-231 and IMR-32 cells were studied by isolating the RNA, reverse transcribing the RNA to cDNA, amplifying the genes using specific primers. The resulting bands were analyzed using image J and the expression of each gene was represented as relative gene expression using the β-actin gene as a control.
# MDA-MB-231 cells = assay: Gene expression by PCR relative to β-actin, MDA-MB-231; format: cell-based, human; conditions: MDA-MB-231, 96 μg/ml, 72 h
# Method: as §8, §9
# [6] = test system: human colon cancer cells (HCT-116); assay: MTT cell proliferation assay, HCT-116; format: cell-based
# Method: as §1, §2, §3, §4, §5, §6, §7
# [7] = test system: estrogen positive breast cancer cells (MCF-7); assay: MTT cell proliferation assay, MCF-7; format: cell-based; conditions: Homo sapiens
# Method: as §1, §2, §3, §4, §5, §6, §7
# lymphocytes = conditions: 1 μg/ml, 24 h; cited from earlier work
compound,measurement,setting,value
"Cc1cnc(-c2ccc(CCCCCCCC(C)C)cc2)c(C)c1C [Compound 16, 3,4,5-trimethyl-2-(4-(8-methylnonyl)phenyl)pyridine]",Viability percentage Lymphocytes,"[1]; 300 μg/ml, 72 h, listed as anticancer compound",74.94% and 74.94 ± 1.50%
same,Viability percentage Lymphocytes,"[1]; 350 μg/ml, 48 h",82.11 ± 1.42%
same,Viability percentage Lymphocytes,"[1]; 400 μg/ml, 24 h, listed as anticancer compound",91.04% and 90.40 ± 4.02%
same,phase at which cell cycle progression is inhibited,IMR-32 cells [2],G1 phase
same,phase at which cell cycle progression is inhibited,MDA-MB-231,G2/M phase
same,viability at 300 µg/mL,"[3]; IMR-32, 300 μg/ml, 72 h, read-out: Viability percentage IMR-32",0%
same,viability at 350 µg/mL,"[3]; IMR-32, 350 μg/ml, 48 h, read-out: Viability percentage IMR-32",0%
same,viability at 400 µg/mL,"[3]; IMR-32, 400 μg/ml, 24 h, read-out: Viability percentage IMR-32",0%
same,IC50,"[3]; IMR-32, 24 h",224 ± 7.21 µg/mL
same,IC50,"[3]; IMR-32, 48 h",165.2 ± 0.87 µg/mL
same,IC50,"[3]; IMR-32, 72 h",87.8 µg/mL
same,viability at 300 µg/mL,"[4]; MDA-MB-231, 300 μg/ml, 72 h, read-out: Viability percentage MDA-MB-231",0%
same,viability at 350 µg/mL,"[4]; MDA-MB-231, 350 μg/ml, 48 h, read-out: Viability percentage MDA-MB-231",0%
same,viability at 400 µg/mL,"[4]; MDA-MB-231, 400 μg/ml, 24 h, read-out: Viability percentage MDA-MB-231",0%
same,IC50,"[4]; MDA-MB-231, 24 h",199.2 ± 0.5 µg/mL
same,IC50,"[4]; MDA-MB-231, 48 h",99.1 ± 1.6 µg/mL
same,IC50,"[4]; MDA-MB-231, 72 h",96.2 ± 1.75 µg/mL
same,inhibition at 300 µg/mL,"[4]; MDA-MB-231 cells, 300 μg/ml, read-out: Percentage Inhibition",94.54 ± 0.59%
same,Bcl-2 gene expression vs control,IMR-32 cells [5],no change in the expression levels
same,IKK-β gene expression vs control,IMR-32 cells [5],downregulation
same,Nrf2 gene expression vs control,IMR-32 cells [5],reduced expression level
same,caspase-3 gene expression vs control,IMR-32 cells [5],upregulation
same,p53 gene expression vs control,IMR-32 cells [5],reduced
same,Bcl-2 gene expression vs control,MDA-MB-231 cells,reduced expression levels
same,IKK-β gene expression vs control,MDA-MB-231 cells,almost similar in treated and control cells
same,Nrf2 gene expression vs control,MDA-MB-231 cells,downregulation
same,caspase-3 gene expression vs control,MDA-MB-231 cells,upregulation
same,p53 gene expression vs control,MDA-MB-231 cells,reduced
same,viability at 300 µg/mL,"[6]; HCT-116, 300 μg/ml, 72 h, read-out: Viability percentage HCT-116",3.29 ± 3.15%
same,viability at 350 µg/mL,"[6]; HCT-116, 350 μg/ml, 48 h, read-out: Viability percentage HCT-116",0%
same,viability at 400 µg/mL,"[6]; HCT-116, 400 μg/ml, 24 h, read-out: Viability percentage HCT-116",0%
same,IC50,"[6]; HCT-116, 24 h",179 ± 6.12 µg/mL
same,IC50,"[6]; HCT-116, 48 h",162 ± 5.02 µg/mL
same,IC50,"[6]; HCT-116, 72 h",159 µg/mL
same,IC50,"[7]; MCF7, 24 h",243 µg/mL
same,IC50,"[7]; MCF7, 48 h",183 ± 6.29 µg/mL
same,IC50,"[7]; MCF7, 72 h",155 ± 5.24 µg/mL
same,viability at 300 µg/mL,"[7]; MCF7, 300 μg/ml, 72 h, read-out: Viability percentage MCF-7",0%
same,viability at 350 µg/mL,"[7]; MCF7, 350 μg/ml, 48 h, read-out: Viability percentage MCF-7",0%
same,viability at 400 µg/mL,"[7]; MCF7, 400 μg/ml, 24 h, read-out: Viability percentage MCF-7",0%
"COc1cccc2c1C(=O)c1c(O)c3c(c(O)c1C2=O)C[C@@](O)(C(=O)CO)C[C@@H]3O[C@H]1C[C@H](N)[C@H](O)[C@H](C)O1 [Doxorubicin, doxorubicin, reference compound]",lymphocyte viability,lymphocytes,65%
same,IC50,"[3]; IMR-32, crude extracts 100-500 μg/ml, doxorubicin 0.1-4 μg/ml, 24 h",0.5 µg/mL
same,IC50,"[4]; MDA-MB-231, crude extracts 100-500 μg/ml, doxorubicin 0.1-4 μg/ml, 24 h",0.83 ± 0.03 µg/mL
same,IC50,"[6]; HCT-116, crude extracts 100-500 μg/ml, doxorubicin 0.1-4 μg/ml, 24 h",0.4 µg/mL
same,IC50,"[7]; MCF7, crude extracts 100-500 μg/ml, doxorubicin 0.1-4 μg/ml, 24 h",0.66 ± 0.04 µg/mL
